Data reported in ChEMBL document CHEMBL1137544, “Syntheses of immunomodulating androstanes and stigmastanes: comparison of their TNF-alpha inhibitory activity” (Bioorg Med Chem, 2007).
Active and inactive are the calls of the source. The rule behind the calls is not given here.

The compounds below were run on J774.A1 (assay: Inhibition of LPS-induced TNFalpha production in mouse J774A.1 cells).
Assay type: functional, cell-based

For `C[C@@H]1C[C@H]2[C@@H]3CCC4=CC(=O)C=C[C@]4(C)[C@@]3(F)[C@@H](O)C[C@]2(C)[C@@]1(O)C(=O)CO` [DEXAMETHASONE], which IC50 is on record?
The IC50 was 48 nM.

For `CC[C@@H](C(C)C)[C@H](O)[C@@H](O)[C@@H](C)[C@H]1CC[C@H]2[C@@H]3CC(=O)[C@@]4(O)C[C@@H](O)CC[C@]4(C)[C@H]3CC[C@]12C`, which IC50 is on record?
Its IC50 is 18 nM.

Which IC50 does the source give for `CC[C@@H](C(C)C)[C@H](O)[C@@H](O)[C@@H](C)[C@H]1CC[C@H]2[C@@H]3CC=C4C[C@@H](Br)CC[C@]4(C)[C@H]3CC[C@]12C` here?
Its IC50 is 144 nM.

How did the IC50 turn out when `CC[C@@H](C(C)C)[C@H](O)[C@@H](O)[C@@H](C)[C@H]1CC[C@H]2[C@@H]3CC=C4C[C@@H](O)CC[C@]4(C)[C@H]3CC[C@]12C` was run?
The IC50 was 35 nM.

How did the IC50 turn out when `CC[C@@H](C(C)C)[C@H](O)[C@@H](O)[C@@H](C)[C@H]1CC[C@H]2[C@@H]3CC(=O)[C@@]4(O)C[C@@H](F)CC[C@]4(C)[C@H]3CC[C@]12C` was run?
Its IC50 is 47 nM.

For `CC[C@@H](C(C)C)[C@H](O)[C@@H](O)[C@@H](C)[C@H]1CC[C@H]2[C@@H]3CC(=O)[C@@]4(O)C[C@@H](Br)CC[C@]4(C)[C@H]3CC[C@]12C`, which IC50 is on record?
Its IC50 is 38 nM.

`C[C@]12CC[C@H]3[C@@H](CC(=O)[C@@]4(O)C[C@@H](Br)CC[C@]34C)[C@@H]1CCC2=O` was tested. Which IC50 did it give?
Its IC50 is 134 nM.

With `CC[C@@H](C(C)C)[C@H](O)[C@@H](O)[C@@H](C)[C@H]1CC[C@H]2[C@@H]3CC=C4C[C@@H](Cl)CC[C@]4(C)[C@H]3CC[C@]12C` as the compound, how does the Activity read?
Its Activity is “inactive”.

For `CC[C@@H](C(C)C)[C@H](O)[C@@H](O)[C@@H](C)[C@H]1CC[C@H]2[C@@H]3CC=C4C[C@@H](F)CC[C@]4(C)[C@H]3CC[C@]12C`, which Activity is on record?
The Activity was “inactive”.

For `C[C@]12CC[C@H](O)CC1=CC[C@@H]1[C@@H]2CC[C@]2(C)C(=O)CC[C@@H]12` [PRASTERONE], which IC50 is on record?
The IC50 was 141 nM.

For `C[C@]12CC[C@H]3[C@@H](CC(=O)[C@@]4(O)C[C@@H](Br)CC[C@]34C)[C@@H]1CCC(=O)O2`, which Activity is on record?
Its Activity is “inactive”.

With `C[C@]12CC[C@H]3[C@@H](CC(=O)[C@@]4(O)C[C@@H](O)CC[C@]34C)[C@@H]1CCC2=O` as the compound, how does the IC50 read?
Its IC50 is 109 nM.

These compounds were tested on J774.A1 (assay: Cytotoxicity against mouse J774A.1 cells).
Assay type: cell-based

Which Activity does the source give for `CC[C@@H](C(C)C)[C@@H](O)[C@H](O)[C@@H](C)[C@H]1CC[C@H]2[C@@H]3CC(=O)[C@@]4(O)C[C@@H](Br)CC[C@]4(C)[C@H]3CC[C@]12C` here?
The Activity was “Toxic”.

For `CC[C@@H](C(C)C)[C@@H](O)[C@H](O)[C@@H](C)[C@H]1CC[C@H]2[C@@H]3CC(=O)[C@@]4(O)C[C@@H](F)CC[C@]4(C)[C@H]3CC[C@]12C`, which Activity is on record?
Its Activity is “Toxic”.
